Results published in patent US9271965B2, “Crystalline forms of (R)-3-[N-(3'-chlorobiphenyl-4-ylmethyl)-N'-(3-hydroxyisoxazole-5-carbonyl)hydrazino]-2-hydroxyproprionic acid isopropyl ester” (Theravance Biopharma R&D IP, LLC, priority 2012, dated 2016).

Tests used:
Format in all cases: physicochemical
[1] = Exposure of Form 2 to 84% relative humidity, analysis by PXRD; details: 84% RH for seven days
From the text: In one experiment, a sample of Form 2 was exposed to 84% RH for seven days. […] This experiment established that Form 2 is metastable to the monohydrate Form 1 in high relative humidities (>75% RH). Accordingly, in another embodiment, the crystalline neutral monohydrate Form 1 can be prepared by (a′) exposing the crystalline neutral Form 2 to high humidity; and in one embodiment exposing Form 2 to about >75% relative humidity, typically for about 5-7 days.

[2] = Heat induced decomposition by DSC and TGA; details: 10° C. per minute, nitrogen purge
Experimental: (§1) The crystalline compounds were subjected to temperature scan using a TA Instruments Q100 differential scanning calorimeter equipped with a refrigerated cooling system. Samples were loaded into aluminum pans with crimped lids. In most cases, the samples were heated to 250° C. at a rate of 10° C. per minute under a purge of nitrogen gas. The data acquisition was controlled by Thermal Advantage software Release 5.1.2 and the data were analyzed with Universal Analysis 2000 software (version 4.7A).
as §1, with “Q500 thermal gravimetric analyzer.” for “Q100 differential scanning calorimeter equipped with a refrigerated cooling system.”, “platinum” for “aluminum”, “and” for “with crimped lids. In most cases, the samples were”

[3] = Dynamic moisture sorption (DMS) assessment; details: for solid form (PXRD) after moisture sorption-desorption: PXRD before and after the DMS experiment; for hygroscopicity: from DMS profile, Form 1 per European Pharmacopoeia Technical Guide classification; for hysteresis between sorption and desorption: two cycles of water sorption and desorption
Experimental: In one embodiment, the crystalline neutral monohydrate Form 1 is characterized by the DMS profile in FIG. 4. Samples of Form 1 were subjected to isothermal moisture sorption analysis at 25° C. […] The step-like profile at 40-60% RH may indicate capillary condensation. At 90% RH, the total moisture uptake was ˜0.5%.
In one embodiment, the crystalline neutral Form 2 is characterized by the DMS profile in FIG. 11. Samples of Form 2 were subjected to isothermal moisture sorption analysis at 25° C. With increasing relative humidity, the amount of water adsorbed by the solid increased gradually up to 75% RH and steeply between 75%-90% RH […].
In one embodiment, the crystalline neutral anhydrous Form 3 is characterized by the DMS profile in FIG. 29. The DMS thermogram of Form 3 is similar to that of Form 2 (FIG. 11). […] The sample, however, loses the adsorbed water during desorption segment and returns to an anhydrous state. Overlay of the PXRD patterns of the sample before and after it was subjected the moisture sorption-desorption experiment is shown in FIG. 30. […] Form 3, like Form 2, is hygroscopic.
In one embodiment, the crystalline neutral anhydrous Form 4 is characterized by the DMS profile in FIG. 37. […] Form-4 is non-hygroscopic. […] Form 4, which is obtained from the monohydrate Form 1, is non-hygroscopic, whereas Form 3, which is obtained from anhydrous Form 2, is hygroscopic. […] Overlay of the PXRD patterns of the sample before and after it was subjected the moisture sorption-desorption experiment is shown in FIG. 30.
Moisture sorption and desorption data on the crystalline compounds were collected on a VTI SGA-100 Vapor Sorption Analyzer. Sorption and desorption data were collected over a range of 5% to 90% relative humidity (RH) at 5% RH intervals. Equilibrium criteria used for analysis were less than 0.01% weight change in 5 minutes, with a maximum equilibration time of three hours if the weight criterion was not met. Samples were subjected to initial drying or desorption steps to 5% RH followed by the sorption-desorption cycle. Data were collected at a time interval of two minutes or 0.01% change in weight.

[4] = Slurry of Form 2 in water, analysis by PXRD; details: slurried in water (e.g., deionized water) for five days
From the text: This experiment established that Form 2 is metastable to the monohydrate Form 1 in solutions containing water. Thus, in yet another embodiment, the crystalline neutral monohydrate Form 1 can be prepared by (a″) reslurrying the crystalline neutral Form 2 in water or an aqueous solution; (b″) heating then cooling the resulting slurry; (c″) optionally stirring or sonicating to complete dissolution; and allowing solids to form and isolating the solids to yield the crystalline neutral monohydrate Form 1. […] Step (a″) is typically conducted by first treating Form 2 with methanol, and subsequently adding water as an anti-solvent to form a slurry. Step (b″) generally involves heating the slurry to a temperature within the range of about 55-75° C., and in one embodiment to about 60° C. The cooling in step (b″) is generally to about room temperature.

[5] = Retention of lattice water under ambient conditions and under high vacuum

| Compound | solid form after exposure to high humidity [1] | heat induced decomposition temperature [2] | total quantity of water taken up in the DMS experiment ([3]; DMS, 25° C.) | solid form (PXRD) after moisture sorption-desorption [3] | hygroscopicity [3] | hysteresis between sorption and desorption [3] | solid form after slurrying in water [4] | water taken up when exposed up to 90% RH ([3]; DMS, up to 90% RH) | water taken up between 75% RH and 90% RH ([3]; DMS, between 75% RH and 90% RH) | loss of lattice water ([5]; exposed to ambient conditions for more than a month) | loss of lattice water ([5]; placed in high vacuum for more than 24 hours) | total moisture uptake ([3]; isothermal moisture sorption at 25° C., at 90% RH) |
| --- | --- | --- | --- | --- | --- | --- | --- | --- | --- | --- | --- | --- |
| CC(C)OC(=O)[C@H](O)CN(Cc1ccc(-c2cccc(Cl)c2)cc1)NC(=O)c1cc(O)no1 [Form 2, (R)-3-[N-(3′-chlorobiphenyl-4-ylmethyl)-N′-(3-hydroxyisoxazole-5-carbonyl)hydrazino]-2-hydroxypropionic acid isopropyl ester] | converts to Form 1 at high humidities | > 175 °C | 3.5-3.6% | showed a PXRD pattern that matched with the starting material | hygroscopic | showed distinct hysteresis | PXRD pattern consistent with Form 1 |  |  |  |  |  |
| CC(C)OC(=O)[C@H](O)CN(Cc1ccc(-c2cccc(Cl)c2)cc1)NC(=O)c1cc(O)no1 [Form 4, (R)-3-[N-(3′-chlorobiphenyl-4-ylmethyl)-N′-(3-hydroxyisoxazole-5-carbonyl)hydrazino]-2-hydroxypropionic acid isopropyl ester] |  |  |  | retained its solid-state structure | non-hygroscopic | no hysteresis |  | less than 0.1 % by weight |  |  |  |  |
| CC(C)OC(=O)[C@H](O)CN(Cc1ccc(-c2cccc(Cl)c2)cc1)NC(=O)c1cc(O)no1 [Form 3, (R)-3-[N-(3′-chlorobiphenyl-4-ylmethyl)-N′-(3-hydroxyisoxazole-5-carbonyl)hydrazino]-2-hydroxypropionic acid isopropyl ester] |  |  |  | returns to the same solid form after moisture sorption and desorption | hygroscopic |  |  |  | about 3.5% |  |  |  |
| CC(C)OC(=O)[C@H](O)CN(Cc1ccc(-c2cccc(Cl)c2)cc1)NC(=O)c1cc(O)no1 [Form 1, (R)-3-[N-(3′-chlorobiphenyl-4-ylmethyl)-N′-(3-hydroxyisoxazole-5-carbonyl)hydrazino]-2-hydroxypropionic acid isopropyl ester] |  | > 175 °C |  | did not show any change in their PXRD pattern | slightly hygroscopic | did not show hysteresis |  |  |  | did not lose lattice water | did not lose lattice water | ~0.5% |
